Experimental data taken from US20070050862A1, “Promoter and methods of use in plants” (priority 2005, published 2007).

Experiments:
Type in all cases: in vivo, Arabidopsis thaliana
[1] = system: AtCel5-GUS expression; test: GUS activity in roots of transgenic AtCel5-GUS seedlings (fluorometric MUG assay); settings: for Relative activity (GUS activity relative to controls): overlaid 24 hours with 10 ml of 100 μM ABA, fitted slope ± standard error
Description: To investigate the influence of indole-3-acetic acid (IAA; Sigma) plants were grown under liquid conditions as well as vertical plates. In all experiments the roots were separated from the shoots, frozen in liquid Nitrogen, and stored at −80° C. prior to analysis. […] Seeds were cold treated for 4 days at 4° C. to promote even germination. Liquid cultures were placed on a rotary shaker at 120 rpm and grown under 24 hours of fluorescent light at room temperature. […] Plates were transferred to the light incubator for 10 days and set in a vertical position. The inhibitory effect of NPA on root gravity perception was examined by observing the direction of root growth in plates set in a horizontal position.
For analysis of the effects of ABA, a 100 mM ABA stock solution was prepared in 100% ethanol (13.22 mg ABA/0.5 ml) and then diluted 1000× in water. Seeds expressing AtCel5-GUS were plated on agar basal medium and grown for 7 and 10 days. Under sterile conditions, plates with seedlings were opened and 10 ml of 100 μM ABA was added to bathe the seedlings. Plates were then set horizontally in the light incubator for 24 hours.
Quantification of GUS activity was performed according to the method of Jefferson et al. (1987) using the fluorogenic substrate MUG (4-methyl-umbelliferyl-β-D-glucuronide). Only root tissue was used to analyze GUS activity. Tissues were ground in MUG extraction buffer and centrifuged for 5 minutes, at maximal speed in a microfuge, to clear the supernatant. An aliquot of crude extract containing the same number of root tips per treatment was mixed with the MUG reaction buffer containing 2 mM MUG and incubated at 37° C. Five or six aliquots were taken from the enzyme reaction at 60 minute intervals. At each time point, the reaction was stopped with 0.2 M Na2CO3. Fluorescence was determined using a one-channel fluorometer (Turner Designs Picofluor) with an excitation range of 365-395 nm and emission wavelengths of greater than 430 nm. The fitted linear slope (±standard error) of fluorescence vs. incubation time was used as a relative measure of GUS content for comparison of controls and treatments.

[2] = system: AtCel5 transcript; test: RT-PCR of AtCel5 transcript in roots, normalized to KOR; settings: 10 μM ACC
Description: For comparative RT-PCR analysis of roots exposed to various treatments, or the analysis of expression of the AtCel5 duplicon, a two-step RT-PCR was performed using the Retroscript kit (Ambion, Austin, Tex.). Total root RNA was pretreated with DNAse prior to reverse transcription (Ambion DNA-free kit). The first strand cDNA was prepared with oligo dT primers and used as template for PCR reactions. RT-PCR was normalized using Actin-11 or KOR as internal standards. […] Each cycle included a denaturation and an extension step at 94° C. for 45 seconds, and at 72° C. for 70 seconds, respectively. The annealing step was carried out for 30 seconds at the temperature optimal for each primer pair: • AtCel5 (set II), 58° C.; KOR, 62° C.; Actin-11, 60° C.; AtCel3, 65° C.

[3] = system: AtCel5-GUS expression in the root cap; test: Histochemical GUS staining of AtCel5-GUS seedlings
Description: For analysis of ethylene regulation, seeds expressing AtCel5-GUS were plated on agar containing half-strength MS medium supplemented with 10 μM of 1 aminocyclo-propane-1 carboxylic acid (ACC; Sigma), made from a stock (1000×) prepared in water. […]
Plant tissues were collected in 90% acetone and incubated on ice for at least 10 min. Tissues were rinsed with 50 mM NaPO4 pH 7.2, […] and […] and then placed in staining solution (2 mM 5-bromo-4-chloro-3-indolyl-β-D-[…] [X-Glu; Sigma] in rinse solution), vacuum infiltrated for 10 minutes and finally incubated at 37° C. for 2 hours or overnight. Seedlings were examined using a microscope and photographed with a Digital Nikon 990 Camera.

CC1=CC(=O)CC(C)(C)C1(O)/C=C/C(C)=C\C(=O)O (stereo not drawn) [ABA, abscissic acid]
AtCel5 expression after ABA treatment ([1]; 24 hour ABA treatment, both experiments, vs control): reduced by almost half | Relative activity (GUS activity relative to controls) ([1]; Experiment number 1: seedlings 7 days post-germination): 0.53 ± 0.04 | Relative activity (GUS activity relative to controls) ([1]; Experiment number 2: seedlings 10 days post germination): 0.42 ± 0.06

NC1(C(=O)O)CC1 [ACC, 1 aminocyclo-propane-1 carboxylic acid]
AtCel5 transcript, control vs treated roots [2]: no significant changes | AtCel5-GUS expression once growth stalled ([3]; after 10 days on ACC plates, staining reappeared on fresh media without ACC): disappeared | GUS staining in the root cap ([3]; seedlings grown for 10 days on MS plates containing 10 μM ACC): still observed

O=C(O)Cc1c[nH]c2ccccc12 [IAA, indole-3-acetic acid]
Quantitative GUS activity in roots compared to controls ([1]; agar plates supplemented with 10 μM IAA): large decrease | GUS activity compared to controls ([1]; seedlings grown on liquid MS containing IAA (50 μM)): greatly reduced

O=C(O)c1ccccc1C(=O)Nc1cccc2ccccc12 [NPA, N-1-naphthylphthalamic acid]
Quantitative GUS activity in roots compared to controls ([1]; agar plates supplemented with 1 μM NPA): large decrease
